# In the NIST ThermoML archive (doi:10.1016/j.jct.2017.05.010):
# ± gives the expanded uncertainty stated by the source.
# Settings: 101.33 kPa, Liquid, Single path-length method
structure (smiles),measurement,setting,value
CCCCOCCCN [3-butoxy-1-propanamine],speed of sound,283.15 K,1387.3 ± 1.7 m/s
same,speed of sound,288.15 K,1367.3 ± 1.7 m/s
same,speed of sound,293.15 K,1346.7 ± 1.7 m/s
same,speed of sound,298.15 K,1326.4 ± 1.7 m/s
same,speed of sound,303.15 K,1306.7 ± 1.7 m/s
